Results from patent US20110229572A1, “DELIVERY OF DRUG COMBINATIONS” (BIOCOMPATIBLES UK Limited, priority 2007, published 2011).
Where two headings read alike, the source gives them in different places. Values belong to the compound of their own block, whether it stands above or below them.

How the values were obtained:
[1] = cited from earlier work
[2] = P-4135F, cited from earlier work
[3] = cited from earlier work; remark: listed apart in the source
[4] = Loading of doxorubicin and irinotecan into the same high AMPS beads (depletion, UV); format: physicochemical; settings: 1 ml high AMPS beads
Procedure: Five samples of 500-700 μm High AMPS beads of Example 1 were loaded with doxorubicin and irinotecan following different approaches:
Sample 1: 3.5 mL of irinotecan solution (Campto, Pfizer, 20 mg.mL^−1=70 mg) was loaded into 1 mL of beads for 48 h, to saturate all the sulfonate groups. Then, the depleted solution was removed and the loaded beads were washed with a known volume of deionised water to remove the non-bound drug. The amount of irinotecan loaded into the beads was calculated by depletion, as a difference between the initial and final amounts in the depleted solution and all washings measured by UV at a wavelength of 369 nm. One mL of doxorubicin (Dabur oncology-25 mg.ml^−1) was later added to the same beads and the loading profile determined. […] All solutions were measured by UV at a wavelength of 483 nm wavelength and the amount of drug loaded into the beads determined by depletion. After the beads were loaded and washed with deionised water, in a second step, 1.25 ml of irinotecan solution (20 mg.mL^−1=25 mg) was added to the same beads and the loading profile determined. […]
To determine the loading profiles of all samples, an aliquot of 50 μl was removed from each vial at time 5, 15, 30, 45 min after the addition of each drug, diluted as necessary and read by UV at 483 and 369 nm. […]

[5] = Elution of doxorubicin and irinotecan from the same beads into 200 ml PBS; format: physicochemical; settings: all samples
Procedure: After being sized, all samples were eluted. Here, the remaining loading solutions were removed using a Pasteur pipette and the loaded beads were transferred to brown flasks containing 200 ml of PBS (Inverclyde Biologicals). At time 5, 15, 30, 45, 60, 90 min, 2 h, 4 h and 24 h, an aliquot of elution medium (4 ml) was removed and replaced with 4 mL of fresh PBS to maintain the volume. All samples were read by UV at 483 and 369 nm wavelengths, using the corresponding standard curves to calculate the amount eluted at each time point.
These two assumptions were made for all calculations. All samples were read at both 483 nm and 369 nm wavelengths. Using the absorbance and the standard curve of doxorubicin at 483 nm, the concentration of doxorubicin in each sample was calculated and using these concentrations and the standard curve of doxorubicin at 369 nm, the absorbance of doxorubicin at this wavelength was calculated.

[6] = Loading of doxorubicin into ibuprofen-loaded low AMPS beads (depletion); format: physicochemical
Procedure: Ibuprofen and doxorubicin solutions were loaded into low AMPS beads simultaneously. In order to achieve this, one sample of 1 ml of 500-700 μm beads was loaded with ibuprofen (according to examples in WO2004073688). The excess packaging solution was removed using a Pasteur pipette and 2 ml of doxorubicin solution (5 mg.ml^−1) were added. After 24 h, a 50 μl aliquot was removed from the depleted solution and measured by UV at 263 nm and 483 nm. The amount of doxorubicin loaded into beads was calculated by depletion, as a difference between the initial and final amounts in the depleted solution (calculations explained below).
These two assumptions were made for all calculations. All samples were read at both wavelengths (263 nm and 483 nm). Using the absorbance at 483 nm the concentration of doxorubicin in each sample was calculated, then using these concentrations and the standard curve of doxorubicin at 263 nm, the absorbance of doxorubicin at 263 nm was calculated. By subtracting this value from the total absorbance at 263 nm, the concentration of ibuprofen, was calculated using the ibuprofen standard curve.
Initially, lyophilised beads as described in WO2004073688 were loaded with ibuprofen/ethanol solution by solvent evaporation and then rehydrated with water and autoclaved for 15 min at 121° C. […]

[7] = Rapamycin and doxorubicin loading into high AMPS beads by two methods; format: physicochemical; settings: Method 2
Procedure: Unloaded high AMPS bead slurry 1 ml was loaded with doxorubicin solution (5 ml of 10.07 mg/ml, target loading 50 mg/ml Bead) overnight. The doxorubicin-loaded beads were washed with 1 ml DMSO 5 times to remove extra water, and 1 ml 60 mg/mL rapamycin DMSO solution was mixed with the doxorubicin beads for about 30 min. Subsequently, following removal of extra rapamycin DMSO solution, the beads were washed with 5 ml saline until no white drug particles were observed.
1 ml Bead slurry was washed with 1 mL DMSO 5 times and mixed with 1 ml 60 mg/ml rapamycin DMSO solution for 30 min. The loaded beads were then washed with 5 ml saline until no further white drug particles were observed. […]
Doxorubicin loading test: The doxorubicin loading was measured by depletion method in either water or DMSO solution. The loading solution was taken and diluted 10 times and measured by UV at 483 nm to determine the concentration of doxorubicin residue in solution. […] The concentration of rapamycin was determined by UV at 279 nm. […]
Doxorubicin loss determination: The doxorubicin loss during DMSO washing of loaded beads before further loading of rapamycin (Method 2) was determined by measuring the accumulated DMSO washing solution in a volumetric flask at 483 nm. […]
Rapamycin and doxorubicin standard curve: The maximum absorbance of rapamycin is at wavelength 279 nm, which is overlapped with doxorubicin absorbance. […]

[8] = tested on: HepG2 cells; assay: MTS cell viability assay with drug loaded beads; format: cell-based, human; settings: Example 8, MTS, 72 hr exposure
Procedure: An MTS assay was also conducted on the wells. At 72 hrs, the media from all wells was cautiously removed and each well washed three times with 200 μl sterile PBS. After adding 100 μl PRF media to each well, 20 μl of the prepared MTS solution (Promega) was also added. After a two hours incubation (37° C., 5% CO2) the plate was read at 490 nm using the plate reader and like the LDH assay, if the reading was too high the samples were diluted (75 μl PRF media: 75 μl samples).
Example 7 was repeated substantially as described, with an extended number of beads of one of the drugs. The results of the MTS assay, i.e. showing cell viability % (log scale) of HepG2 cells after 72 hr exposure, concluded as the mean of 6 samples, is shown in FIG. 19.
An MTS assay was used to assess the synergistic cytotoxic effects of dual loaded beads on HepG2 and PSN1 cells. The rapamycin loaded beads and the doxorubicin loaded beads were the same as those described in Example 7. The dual loaded doxorubicin and rapamycin loaded beads were loaded and analysed as described in Example 4 Method 2 using a 1 ml 60 mg/ml rapamycin solution and 1 ml 37.5 mg/ml doxorubicin solution.
The assay was prepared as described in Example 7 using HepG2 cells and additional plates of PSN1 cells for analysis.
An MTS assay (described in example 7) was conducted after 24, 48 and 72 hrs exposure. […]

[9] = Ibuprofen and irinotecan loading into high AMPS beads; format: physicochemical
Procedure: Drug loading: The drug loading procedure is shown in FIG. 9, in which the unloaded high AMPS beads were washed with DMSO to remove the water trapped within the hydrogel. A mixture of ibuprofen solubilised in DMSO and castor oil as crystallisation inhibitor were subsequently mixed with the bead slurry, and kept for about 10 minutes. Following the removal of the loading solution, saline was used to wash the loaded beads until no drug particles nor large oil droplets were observed. The irinotecan loading was achieved by simply mixing the ibuprofen-loaded beads with irinotecan solution (10 mg/mL) by roller-mixing overnight. The final loaded beads were kept in the water solution as product.
1). Ibuprofen. The content of loaded ibuprofen was determined by an HPLC method. […] The collected DMSO solution was topped to the mark in a 10 ml volumetric flask, and the concentration of ibuprofen was measured by HPLC. […] The content of irinotecan in loaded beads was measured by depletion method. […] The loading solution was diluted with water and measured by UV at 369 nm. Compared to the standard curve, the concentration of irinotecan left in loading solution can be calculated.
To determinate the concentration of each component in a combined drug solution, the standard curves for absorption of predetermined concentrations of ibuprofen and irinotecan at 263, 272 and 369 nm in water were measured. […]

[10] = Elution of ibuprofen-irinotecan-loaded beads into PBS; format: physicochemical; settings: after 5 hours, irinotecan alone, combination comparable
Procedure: The elution of ibuprofen-irinotecan-loaded beads was carried out by mixing 0.24 ml beads with 200 ml PBS (Inverclyde, Bellshill, UK) and roller-mixed on a roller mixer. At certain time point, the solution (5 ml) was taken out for concentration determination by UV and same volume of fresh PBS was added to keep a sink condition.

[11] = cited from earlier work; remark: listed apart in the source

Compound: Nc1nc2c(c(=O)[nH]1)N(C=O)C(CNc1ccc(C(=O)N[C@@H](CCC(=O)O)C(=O)O)cc1)CN2 (some centres unmarked) [LV, leucovorin]
encapsulation rate ([1]; Eudragit P-4135F): 55.4±2.7%
encapsulation rate ([1]; Eudragit RS100): 81.4±8.6%
initial drug loss ([2]; pH 6.8): about 60%
time to complete release ([2]; pH 6.8): ≤ 2 h

Compound: O=c1[nH]cc(F)c(=O)[nH]1 [Sample 5-FU, 5-fluorouracil]
encapsulation efficiency ([3]; PLGA microparticles): 19%
encapsulation efficiency ([3]; encapsulated with Paclitaxel): 30%
encapsulation rate ([1]; Eudragit P-4135F): 48.3±2.0%
encapsulation rate ([1]; Eudragit RS100): 60.3±9.7%
5-FU release ([2]; pH 6.8, within 4 h): lower than 25%
time of nearly immediate release ([2]; pH 7.4): ≤ 15 min

maximum loading capacity of the beads [4]: ~40 mg
doxorubicin released ([5]; in 24 h): < 25%
maximum amount of doxorubicin loaded into ibuprofen loaded beads ([6]; 1 ml low AMPS beads, doxorubicin solution 5 mg/ml, 24 h): 8.3 mg
maximum capacity of low AMPS beads for doxorubicin ([6]; loaded with this drug alone): ~14 mg/mL
doxorubicin loss during DMSO washing before rapamycin loading [7]: about 6.71 mg/ml
Compound: COc1cccc2c1C(=O)c1c(O)c3c(c(O)c1C2=O)C[C@@](O)(C(=O)CO)C[C@@H]3O[C@H]1C[C@H](N)[C@H](O)[C@H](C)O1 [doxorubicin]
cytotoxicity when eluted individually [8]: more cytotoxic to the cells than rapamycin

maximum loading capacity of the beads [4]: 52 mg
irinotecan released ([5]; in <4 h): > 99 % mg
maximum irinotecan loading capacity for unloaded beads [9]: 50 to 60 mg/mL
irinotecan loading efficiency ([9]; unloaded beads, below maximum loading capacity): above 98%
irinotecan eluted [10]: ~100%
Compound: CCc1c2c(nc3ccc(OC(=O)N4CCC(N5CCCCC5)CC4)cc13)-c1cc3c(c(=O)n1C2)COC(=O)[C@]3(O)CC [irinotecan]

Compound: heparin
initial burst release from the co-matrix ([11]; uncoated): 32.7%
initial burst release from the co-matrix ([11]; with polyethylene glycol coatings, for 24 hr): 25.4%
